{"source": "paper PMC6419571", "about": "“Discovery and lead optimisation of a potent, selective and orally bioavailable RARβ agonist for the potential treatment of nerve injury” (Bioorganic & Medicinal Chemistry Letters, 2019)", "key": {"[1]": {"assay": "LogD by shake flask method", "type": "physicochemical", "details": "pH 7.4"}, "CHO-K1 cells": {"tested_on": "CHO-K1 cells", "assay": "In vitro micronucleus test", "type": "cell-based", "details": "presence and absence of S9", "from_the_text": "Similar, negative results were obtained in an in vitro micronucleus test in CHO-K1 cells, in both the presence and absence of S9."}, "Cerebellar neurons": {"tested_on": "Cerebellar neurons", "assay": "Neurite outgrowth in cerebellar cultures on CHO-MAG monolayer", "type": "cell-based", "details": "24 hr treatment, 1 × 10^−8–1 × 10^−6 M", "description": "Compound 10 was evaluated for neurite outgrowth/branching in cerebellar cultures. Cerebellar cultures grown on a monolayer of CHO-MAG were treated with RARβ agonists and neurite outgrowth was assessed by immunostaining and neurite length quantification.[10]\nFig. 1 Effects of RARβ agonists 10 on neurite outgrowth. Cerebellar neurons grown on a monolayer of CHO-MAG cells were treated for 24 hr with either vehicle (V) or increasing doses of RARβ agonists (1 × 10^−8–1 × 10^−6 M). Both RARβ agonists increase neurite outgrowth in a dose dependant manner. Results are means from 3 independent experiments. Statistical analysis was done using Student’s t-test between vehicle and each drug’s highest dose. Error bars are SEM and **p ≤ 0.001, *p ≤ 0.01."}, "RARβ": {"target": "T1, RARβ (Homo sapiens, UniProt P10826)", "T1 construct": "expressed in transfected cells", "T1 sequence (P10826 183-417 limits assumed)": "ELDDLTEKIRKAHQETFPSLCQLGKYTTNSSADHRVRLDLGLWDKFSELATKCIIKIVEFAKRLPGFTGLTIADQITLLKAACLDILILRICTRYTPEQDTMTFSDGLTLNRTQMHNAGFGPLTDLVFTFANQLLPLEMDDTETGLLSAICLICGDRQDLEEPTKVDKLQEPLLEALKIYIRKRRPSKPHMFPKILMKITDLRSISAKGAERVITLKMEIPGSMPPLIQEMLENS", "assay": "Transactivation against the human RAR ligand-binding domains", "type": "cell-based", "from_the_text": "The more drug-like template present in 10 translates into a good in vitro and in vivo profile for this RARβ agonist (Table 5)."}, "three bacterial strains": {"tested_on": "three bacterial strains", "type": "cell-based"}, "Cyp450 1A2": {"target": "T2, Cyp450 1A2 (Homo sapiens, UniProt P05177)", "T2 sequence (P05177 1-516)": "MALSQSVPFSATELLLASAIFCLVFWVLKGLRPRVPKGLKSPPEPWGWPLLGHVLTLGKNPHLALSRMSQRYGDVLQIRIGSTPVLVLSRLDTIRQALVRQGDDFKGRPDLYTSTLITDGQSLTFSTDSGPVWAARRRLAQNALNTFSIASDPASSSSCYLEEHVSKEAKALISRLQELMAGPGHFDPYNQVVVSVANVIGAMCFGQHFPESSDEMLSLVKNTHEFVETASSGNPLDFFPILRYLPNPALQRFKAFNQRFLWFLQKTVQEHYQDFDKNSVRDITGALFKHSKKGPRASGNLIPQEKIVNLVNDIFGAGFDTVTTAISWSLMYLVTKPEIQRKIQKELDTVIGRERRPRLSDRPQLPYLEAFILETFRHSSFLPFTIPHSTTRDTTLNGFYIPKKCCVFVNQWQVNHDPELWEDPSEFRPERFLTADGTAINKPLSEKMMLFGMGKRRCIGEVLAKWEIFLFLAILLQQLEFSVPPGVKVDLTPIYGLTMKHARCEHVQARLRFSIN", "assay": "Cyp450 inhibition, 1A2", "type": "in vitro ADME", "details": "isoform 1A2"}, "avulsed rats": {"tested_on": "avulsed rats", "assay": "Rodent model of avulsion: sensory and locomotor tasks", "type": "in vivo, rat", "details": "3 mg/kg, po, three times a week", "description": "Rats were trained for two weeks prior to surgery in behavioural tasks and scores were recorded the day before surgery, the day after surgery and then weekly, for four weeks. Surgery was performed as previously described.[11], [12] In a sticky tape task, the time taken to sense and remove the tape from the paw of the lesioned forelimbs was measured. […] In locomotor tasks, the number of foot slips in a horizontal ladder made by the injured forelimb of the compound 10 treated rats was also measured. […] Further details and data on an in vivo model of crush injury will be presented in due course.\nFig. 2 Effects of oral administration of compound 10 in sensory and locomotor functions in avulsed rats. Dose 3 mg/kg, po, three times a week, every other day. Data represent mean ± SEM of n = 8, **p ≤ 0.005, ***p ≤ 0.001. Two-way repeated-measures ANOVA, Tukey’s post-hoc test."}}, "note": "pEC50, pIC50: −log10 of the molar value."}
{"smiles": "Cc1ccc(C)c2oc(-c3nc(-c4ccc(C(=O)O)cc4)no3)cc12", "note": "[Compound 10, 4-(5-(4,7-dimethylbenzofuran-2-yl)-1,2,4-oxadiazol-3-yl)benzoic acid]", "values": [{"measurement": "logD", "setting": "[1]", "result": 2.8}, {"measurement": "in vitro micronucleus test result", "setting": "CHO-K1 cells", "result": "negative"}, {"measurement": "neurite length / outgrowth", "setting": "Cerebellar neurons", "result": "increased neurite length in a dose dependant manner"}, {"measurement": "fold selectivity for RARβ over RARα", "setting": "RARβ", "result": 23, "unit": "fold"}, {"measurement": "fold selectivity for RARβ over RARγ", "setting": "RARβ", "result": 5, "unit": "fold"}, {"measurement": "pEC50", "setting": "RARβ; read-out: RARβ potency EC50", "result": 8.69}, {"measurement": "Ames test result", "setting": "three bacterial strains", "result": "inactive"}, {"measurement": "pIC50", "setting": "Cyp450 1A2", "result": "< 4.60"}, {"measurement": "sticky tape task latency (sense and remove tape), injured forelimb vs vehicle", "setting": "avulsed rats; from week three", "result": "significantly lower latencies"}, {"measurement": "number of foot slips in horizontal ladder, injured forelimb vs vehicle", "setting": "avulsed rats; from week two", "result": "markedly lower"}]}
